The source of these data is ChEMBL document CHEMBL5465560, “Selectivity Literature for EUbOPEN Chemogenomic Library” (2024).

SMILES strings stand for the structures.

The target in assay [1] is T1, Serine/threonine-protein kinase 3 (Homo sapiens) (UniProt Q13188).
T1 sequence (whole entry): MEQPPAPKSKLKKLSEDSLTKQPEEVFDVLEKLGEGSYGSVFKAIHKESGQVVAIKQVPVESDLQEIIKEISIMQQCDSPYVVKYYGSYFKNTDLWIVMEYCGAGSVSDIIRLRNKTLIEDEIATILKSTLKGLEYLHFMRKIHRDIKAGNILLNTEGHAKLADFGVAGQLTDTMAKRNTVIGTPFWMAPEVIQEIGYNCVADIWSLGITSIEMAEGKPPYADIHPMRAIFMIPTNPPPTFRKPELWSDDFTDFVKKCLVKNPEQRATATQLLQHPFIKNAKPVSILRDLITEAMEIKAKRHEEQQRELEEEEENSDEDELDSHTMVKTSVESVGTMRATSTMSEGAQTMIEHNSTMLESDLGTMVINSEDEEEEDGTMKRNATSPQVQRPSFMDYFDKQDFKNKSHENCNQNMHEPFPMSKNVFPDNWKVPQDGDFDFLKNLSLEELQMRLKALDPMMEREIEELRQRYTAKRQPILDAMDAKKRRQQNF
Put plainly: Selectivity interaction (Kinase panel (Z-LYTE Assay)) EUB0001632a STK3. The following applies: at 10 µM.

Assay [2] deals with Protein kinase C theta type (Homo sapiens, UniProt Q04759). Nature of the assay: Selectivity interaction (Kinase panel (Z-LYTE Assay)) EUB0001632a PRKCQ. The following applies: at 10 µM.
Assay [3] deals with Tyrosine-protein kinase FRK (Homo sapiens) (UniProt P42685). Put plainly: Selectivity interaction (Kinase panel (Invitrogen)) EUB0000639a FRK. The following applies: at 200 nM.
Assay [4] addresses T2, Inhibitor of nuclear factor kappa-B kinase subunit beta (Homo sapiens) (UniProt O14920).
T2 sequence (whole entry): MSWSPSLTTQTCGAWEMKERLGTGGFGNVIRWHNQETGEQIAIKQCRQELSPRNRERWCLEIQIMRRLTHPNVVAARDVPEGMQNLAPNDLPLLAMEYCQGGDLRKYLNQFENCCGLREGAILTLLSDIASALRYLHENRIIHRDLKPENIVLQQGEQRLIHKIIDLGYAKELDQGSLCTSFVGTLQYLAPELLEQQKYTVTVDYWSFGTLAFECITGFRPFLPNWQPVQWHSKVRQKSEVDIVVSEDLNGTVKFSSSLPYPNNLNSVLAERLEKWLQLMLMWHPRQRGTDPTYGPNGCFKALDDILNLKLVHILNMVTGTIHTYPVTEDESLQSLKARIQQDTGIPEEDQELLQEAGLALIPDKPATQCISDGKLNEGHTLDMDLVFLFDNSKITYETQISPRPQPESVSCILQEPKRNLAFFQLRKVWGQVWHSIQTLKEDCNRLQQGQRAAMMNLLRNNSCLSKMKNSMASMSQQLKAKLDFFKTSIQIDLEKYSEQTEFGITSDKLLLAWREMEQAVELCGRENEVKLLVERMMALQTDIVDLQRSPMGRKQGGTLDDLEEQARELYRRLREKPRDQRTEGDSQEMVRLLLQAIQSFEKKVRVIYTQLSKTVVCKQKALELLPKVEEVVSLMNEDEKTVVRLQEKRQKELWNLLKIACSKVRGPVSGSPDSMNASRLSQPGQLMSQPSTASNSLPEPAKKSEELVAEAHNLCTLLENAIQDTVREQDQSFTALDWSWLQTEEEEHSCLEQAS
Put plainly: Selectivity interaction (ActivX KiNativ screen (kinase selectivity in THP-1 cell lysates)) EUB0000639a IKBKB. The following applies: lysate, at 0.2 µM. The format is subcellular.

Assay [5] has as its target STE20/SPS1-related proline-alanine-rich protein kinase (Homo sapiens) (UniProt Q9UEW8). Nature of the assay: Selectivity interaction (Kinase panel (DSF assay)) EUB0001559a STK39. A general note: In DSF a fluorescence change marks the thermal transition of the protein.
In assay [6] the target is T3, Receptor-interacting serine/threonine-protein kinase 4 (Homo sapiens) (UniProt P57078).
T3 sequence (whole entry): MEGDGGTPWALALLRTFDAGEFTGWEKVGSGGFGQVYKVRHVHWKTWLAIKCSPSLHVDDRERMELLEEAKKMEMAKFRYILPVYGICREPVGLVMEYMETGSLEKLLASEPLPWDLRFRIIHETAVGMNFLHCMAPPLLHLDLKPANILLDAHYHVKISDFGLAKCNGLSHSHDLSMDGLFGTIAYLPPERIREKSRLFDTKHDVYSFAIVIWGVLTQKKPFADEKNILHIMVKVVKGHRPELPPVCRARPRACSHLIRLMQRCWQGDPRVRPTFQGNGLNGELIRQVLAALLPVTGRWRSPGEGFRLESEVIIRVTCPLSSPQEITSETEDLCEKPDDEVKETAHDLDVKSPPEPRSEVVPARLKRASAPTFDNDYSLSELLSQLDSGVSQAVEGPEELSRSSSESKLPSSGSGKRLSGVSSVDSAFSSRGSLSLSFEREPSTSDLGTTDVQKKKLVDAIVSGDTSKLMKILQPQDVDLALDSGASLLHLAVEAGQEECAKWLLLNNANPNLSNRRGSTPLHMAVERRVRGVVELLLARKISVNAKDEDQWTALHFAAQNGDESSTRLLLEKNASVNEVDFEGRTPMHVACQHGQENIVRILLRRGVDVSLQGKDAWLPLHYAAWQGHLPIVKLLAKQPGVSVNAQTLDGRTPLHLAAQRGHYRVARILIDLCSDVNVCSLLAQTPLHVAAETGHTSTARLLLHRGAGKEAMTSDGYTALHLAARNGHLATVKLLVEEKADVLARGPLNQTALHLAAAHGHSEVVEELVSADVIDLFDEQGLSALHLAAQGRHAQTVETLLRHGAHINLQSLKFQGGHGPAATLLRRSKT
Nature of the assay: Selectivity interaction (Ambit KINOMEscan and KiNATiv profiling in Jurkat cells) EUB0000090b RIPK4. The assay is classed as cell-based. The following applies: at 1 µM.

For assay [7], the target named is Bone morphogenetic protein receptor type-1B (Homo sapiens, UniProt O00238). Put plainly: Selectivity interaction (KinomeScan (DiscoverX)) EUB0000092b BMPR1B. The following applies: at 10 µM.
For assay [8], the target named is Protein kinase C eta type (Homo sapiens) (UniProt P24723). Nature of the assay: Selectivity interaction (KinomeScan (DiscoverX)) EUB0001079a PRKCH. The following applies: at 1 µM.
Protein kinase C eta type (Homo sapiens), sequence (P24723 whole entry): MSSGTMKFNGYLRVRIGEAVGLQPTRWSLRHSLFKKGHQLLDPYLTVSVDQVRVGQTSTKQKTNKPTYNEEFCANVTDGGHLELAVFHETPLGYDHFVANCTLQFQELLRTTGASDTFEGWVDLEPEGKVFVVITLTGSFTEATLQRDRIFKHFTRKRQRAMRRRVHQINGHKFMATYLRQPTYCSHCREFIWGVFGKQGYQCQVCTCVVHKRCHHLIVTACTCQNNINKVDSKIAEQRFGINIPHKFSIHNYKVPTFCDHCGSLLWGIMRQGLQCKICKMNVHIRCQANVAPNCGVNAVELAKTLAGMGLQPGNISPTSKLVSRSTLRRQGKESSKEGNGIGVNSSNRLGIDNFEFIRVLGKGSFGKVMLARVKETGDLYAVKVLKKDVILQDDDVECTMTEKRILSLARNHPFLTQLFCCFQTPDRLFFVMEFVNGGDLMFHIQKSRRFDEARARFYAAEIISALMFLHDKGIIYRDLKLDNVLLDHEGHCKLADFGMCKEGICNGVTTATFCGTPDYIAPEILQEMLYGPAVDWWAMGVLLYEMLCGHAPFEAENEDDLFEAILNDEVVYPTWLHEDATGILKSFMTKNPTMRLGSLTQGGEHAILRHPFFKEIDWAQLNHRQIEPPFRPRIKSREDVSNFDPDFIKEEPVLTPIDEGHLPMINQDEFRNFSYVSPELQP

Tyrosine-protein kinase FRK (Homo sapiens), sequence (P42685 whole entry): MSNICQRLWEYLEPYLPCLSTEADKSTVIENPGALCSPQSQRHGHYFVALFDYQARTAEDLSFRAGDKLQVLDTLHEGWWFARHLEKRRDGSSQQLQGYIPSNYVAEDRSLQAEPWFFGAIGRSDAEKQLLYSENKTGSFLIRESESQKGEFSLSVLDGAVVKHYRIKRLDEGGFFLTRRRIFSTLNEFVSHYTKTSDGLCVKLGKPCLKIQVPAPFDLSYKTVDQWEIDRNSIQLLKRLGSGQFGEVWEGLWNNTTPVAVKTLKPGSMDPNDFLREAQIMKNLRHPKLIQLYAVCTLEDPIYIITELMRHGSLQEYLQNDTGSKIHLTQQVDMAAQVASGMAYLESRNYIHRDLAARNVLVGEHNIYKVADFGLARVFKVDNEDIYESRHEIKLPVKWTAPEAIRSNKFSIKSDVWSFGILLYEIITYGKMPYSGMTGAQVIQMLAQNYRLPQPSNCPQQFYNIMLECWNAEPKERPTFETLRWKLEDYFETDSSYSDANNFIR
Bone morphogenetic protein receptor type-1B, sequence (O00238 whole entry): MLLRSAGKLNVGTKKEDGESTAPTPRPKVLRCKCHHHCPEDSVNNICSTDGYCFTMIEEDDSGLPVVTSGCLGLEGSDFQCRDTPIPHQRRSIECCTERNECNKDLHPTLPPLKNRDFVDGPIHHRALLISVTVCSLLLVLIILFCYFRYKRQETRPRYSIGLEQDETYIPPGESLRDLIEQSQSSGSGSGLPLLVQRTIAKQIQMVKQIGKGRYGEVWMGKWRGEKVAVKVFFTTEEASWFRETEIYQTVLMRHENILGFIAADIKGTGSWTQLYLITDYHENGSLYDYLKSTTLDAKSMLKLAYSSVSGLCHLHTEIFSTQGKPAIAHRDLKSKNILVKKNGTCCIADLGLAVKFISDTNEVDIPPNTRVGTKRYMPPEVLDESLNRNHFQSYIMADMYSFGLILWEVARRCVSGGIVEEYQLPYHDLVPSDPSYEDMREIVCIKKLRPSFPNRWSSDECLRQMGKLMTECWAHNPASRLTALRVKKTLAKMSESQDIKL
Protein kinase C theta type, sequence (Q04759 whole entry, looked up): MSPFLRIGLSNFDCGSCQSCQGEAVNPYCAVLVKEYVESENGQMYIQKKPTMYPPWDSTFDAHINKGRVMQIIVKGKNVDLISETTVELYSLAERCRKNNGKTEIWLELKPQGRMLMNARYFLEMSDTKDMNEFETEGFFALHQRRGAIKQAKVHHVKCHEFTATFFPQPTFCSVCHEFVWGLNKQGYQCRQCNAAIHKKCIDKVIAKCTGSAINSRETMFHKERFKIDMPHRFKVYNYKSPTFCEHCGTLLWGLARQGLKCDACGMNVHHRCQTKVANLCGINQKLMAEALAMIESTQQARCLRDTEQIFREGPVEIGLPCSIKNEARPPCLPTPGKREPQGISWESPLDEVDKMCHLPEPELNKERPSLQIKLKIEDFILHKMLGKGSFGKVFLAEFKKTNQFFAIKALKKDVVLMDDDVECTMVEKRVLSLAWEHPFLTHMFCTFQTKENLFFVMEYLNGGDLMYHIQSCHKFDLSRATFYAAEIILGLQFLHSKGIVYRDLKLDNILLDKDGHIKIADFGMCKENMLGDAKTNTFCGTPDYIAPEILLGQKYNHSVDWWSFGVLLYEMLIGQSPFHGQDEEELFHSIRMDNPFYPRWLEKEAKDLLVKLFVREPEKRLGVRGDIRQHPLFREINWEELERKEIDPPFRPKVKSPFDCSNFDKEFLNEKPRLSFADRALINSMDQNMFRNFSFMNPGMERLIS

Turning to `Cn1cc(-n2cnc3c(NCc4nc5cc(Cl)c(Cl)cc5[nH]4)nc(N4CCOCC4)nc32)cn1`, the % of control in assay [1] was determined as 0.418%; in assay [2] it was 14.5%.

In the case of `CC[C@@H]1[C@H](F)C(=O)N[C@@H]1COc1nccc2cc(C(N)=O)c(OC)cc12` [ZIMLOVISERTIB], the % of inhibition in assay [3] was 6.43%; in assay [4], -2.2%.

Regarding `CN(C(=O)c1cnn2cccnc12)c1cc2c(cc1N1CCOCC1)C(=O)N(C[C@@H](F)C(C)(C)O)C2`, the dTM in assay [5] stood at 0.8 K.

`CN(C)C/C=C/C(=O)Nc1ccc(C(=O)N2CCCC(Nc3ncc(Cl)c(-c4c[nH]c5ccccc45)n3)C2)cc1` (stereo not drawn) had a % of control in assay [6] of 86%.

In turn, `CCC(=O)N1CCN(c2ccc(-n3c(=O)ccc4cnc5ccc(-c6cnc7ccccc7c6)cc5c43)cc2C(F)(F)F)CC1` gave a % of control in assay [7] of 100%.

With `Nc1cnc(N2CCc3cc(S(=O)(=O)Nc4c(F)cc(Cl)cc4F)cc(N4CCCC4=O)c32)nc1` [TP-020n], the % of control in assay [8] is 80%.
